One experiment deals with ASPC1 cells. In words: Inhibition of KRas-mediated phosphorylation of ERK (Cisbio HTRF pERK), ASPC1 cells. Conditions: Homo sapiens, AsPC-1 cells; for IC50: ASPC1, 3 h, 3 hr compound incubation, Cisbio pERK HTRF; for inhibition at 0.1 µM: ASPC1, single point at 100 nM, 3 hrs compound incubation. The class given is cell-based. (Time-resolved FRET reads energy transfer from a long-lived donor to a nearby acceptor.)

In the next experiment the test system is H727 cells. As to the kind of experiment: Inhibition of KRas-mediated phosphorylation of ERK (Cisbio HTRF pERK), H727 cells. Conditions: Homo sapiens; for IC50: NCI-H727, 3 h, 3 hr compound incubation, Cisbio pERK HTRF; for inhibition at 0.1 µM: NCI-H727, single point at 100 nM, 3 hrs compound incubation. Format: cell-based.
For another experiment, the system named is A549 cells. As to the kind of experiment: Inhibition of KRas-mediated phosphorylation of ERK (Cisbio HTRF pERK), A549 cells. Format: cell-based. Conditions: Homo sapiens, single point at 100 nM, 3 hrs compound incubation.
Another experiment relates to H460 cells. In words: Inhibition of KRas-mediated phosphorylation of ERK (Cisbio HTRF pERK), H460 cells. Format: cell-based. Conditions: Homo sapiens, NCI-H460, single point at 100 nM, 3 hrs compound incubation.
In another experiment the test system is HCT116 cells. As to the kind of experiment: Inhibition of KRas-mediated phosphorylation of ERK (Cisbio HTRF pERK), HCT116 cells. The class given is cell-based. Conditions: Homo sapiens, HCT-116, single point at 100 nM, 3 hrs compound incubation.
The test system of another experiment is H358 cells. In words: Inhibition of KRas-mediated phosphorylation of ERK (Cisbio HTRF pERK), H358 cells. Format: cell-based. The settings on record: Homo sapiens, NCI-H358, single point at 100 nM, 3 hrs compound incubation.
For the next experiment, the target named is KRas G12D (Homo sapiens, UniProt P01116, G12D). In words: biochemical. Conditions: Binding to KRas (IC50 nM) G12D, TR-FRET displacement, KRas G12D.
In a further experiment the target is KRas G12R (Homo sapiens, UniProt P01116, G12R). As to the kind of experiment: biochemical. Conditions: Binding to KRas (IC50 nM) G12R, TR-FRET displacement, KRas G12R.
The target in a further experiment is KRas G12V (Homo sapiens, UniProt P01116, G12V). As to the kind of experiment: biochemical. The settings on record: Binding to KRas (IC50 nM) G12V, TR-FRET displacement, KRas G12V.
Sequence of KRas G12V (P01116 1-169 isoform P01116-2 G12V): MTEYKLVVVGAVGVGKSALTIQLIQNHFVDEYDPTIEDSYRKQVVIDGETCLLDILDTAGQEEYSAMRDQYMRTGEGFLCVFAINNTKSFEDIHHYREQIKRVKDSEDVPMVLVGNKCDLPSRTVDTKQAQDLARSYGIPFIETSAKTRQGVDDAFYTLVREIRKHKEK

Sequence of KRas G12D (P01116 1-169 isoform P01116-2 G12D): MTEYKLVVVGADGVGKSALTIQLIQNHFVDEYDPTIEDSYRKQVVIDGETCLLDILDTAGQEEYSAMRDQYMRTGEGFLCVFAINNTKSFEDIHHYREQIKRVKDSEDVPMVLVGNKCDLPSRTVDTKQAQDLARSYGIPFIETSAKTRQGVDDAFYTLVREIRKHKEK
Sequence of KRas G12R (P01116 1-169 isoform P01116-2 G12R): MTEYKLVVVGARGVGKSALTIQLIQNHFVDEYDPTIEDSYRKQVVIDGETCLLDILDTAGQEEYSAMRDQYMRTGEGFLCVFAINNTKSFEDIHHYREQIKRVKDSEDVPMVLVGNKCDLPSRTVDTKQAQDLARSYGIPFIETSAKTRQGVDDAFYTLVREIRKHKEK

For the compound `CCc1c(F)ccc2cc(O)cc(N3CCc4c(nc(OC[C@@]56CCCN5C[C@H](F)C6)nc4N4CCCc5nn(C6CC6)cc5C4)C3)c12` [Example 239, 4-(4-(2-cyclopropyl-7,8-dihydropyrazolo[4,3-c]azepin-5(2H,4H,6H)-yl)-2-(((2R,7aS)-2-fluorohexahydro-1H-pyrrolizin-7a-yl)methoxy)-5,6-dihydropyrido[3,4-d]pyrimidin-7(8H)-yl)-5-ethyl-6-fluoronaphthalen-2-ol], the IC50 with ASPC1 cells turned out to be 3140 nM; with H727 cells, 4100 nM; on KRas G12D it was 57 nM; at KRas G12R, 21 nM; at KRas G12V, 62 nM. For the same compound, the inhibition at 0.1 µM is 6% in the experiment on ASPC1 cells; -8% in the experiment with H727 cells; -9% in the experiment on A549 cells; 11% with H460 cells; -5% in the experiment with HCT116 cells; -8% with H358 cells.

On to `CCc1c(F)ccc2cc(O)cc(N3CCc4c(nc(OC[C@@]56CCCN5C[C@H](F)C6)nc4N4CCCCC(COCC(=O)NC)C4)C3)c12` (stereo partly drawn) [Example 245, 2-((1-(7-(8-ethyl-7-fluoro-3-hydroxynaphthalen-1-yl)-2-(((2R,7aS)-2-fluorohexahydro-1H-pyrrolizin-7a-yl)methoxy)-5,6,7,8-tetrahydropyrido[3,4-d]pyrimidin-4-yl)azepan-3-yl)methoxy)-N-methylacetamide], for which the IC50 in the experiment with ASPC1 cells turned out to be 1460 nM; in the experiment on H727 cells it was 1640 nM; on KRas G12D, 13 nM; at KRas G12R, 9 nM; at KRas G12V, 8 nM. The inhibition at 0.1 µM with ASPC1 cells was 12%; with H727 cells, 15%; in the experiment on A549 cells it was 4%; with H460 cells, 12%; with HCT116 cells it was 10%; in the experiment with H358 cells, 5%.

Take `CCc1c(F)ccc2cc(O)cc(N3CCc4c(nc(OC[C@@]56CCCN5C[C@H](F)C6)nc4N4CCCC5(C4)NC(=O)NC5=S)C3)c12` (stereo partly drawn) [Example 250, 7-(7-(8-ethyl-7-fluoro-3-hydroxynaphthalen-1-yl)-2-(((2R,7aS)-2-fluorohexahydro-1H-pyrrolizin-7a-yl)methoxy)-5,6,7,8-tetrahydropyrido[3,4-d]pyrimidin-4-yl)-4-thioxo-1,3,7-triazaspiro[4.5]decan-2-one]: the IC50 is 283 nM in the experiment on ASPC1 cells; 763 nM in the experiment with H727 cells; 19 nM at KRas G12D; 9 nM on KRas G12R; 10 nM at KRas G12V. In addition, the inhibition at 0.1 µM in the experiment on ASPC1 cells was -2%; in the experiment with H727 cells it was 25%; with A549 cells it was 36%; with H460 cells, 36%; in the experiment on HCT116 cells, 26%; with H358 cells, 34%.

As to `CCc1c(F)ccc2cc(O)cc(N3CCc4c(nc(OC[C@@]56CCCN5C[C@H](F)C6)nc4N4CCCCC(COCC(=O)N(C)C)C4)C3)c12` (stereo partly drawn) [Example 251, 2-((1-(7-(8-ethyl-7-fluoro-3-hydroxynaphthalen-1-yl)-2-(((2R,7aS)-2-fluorohexahydro-1H-pyrrolizin-7a-yl)methoxy)-5,6,7,8-tetrahydropyrido[3,4-d]pyrimidin-4-yl)azepan-3-yl)methoxy)-N,N-dimethylacetamide], the half-inhibitory concentration (IC50) in the experiment on ASPC1 cells was 1310 nM; in the experiment with H727 cells, 1200 nM; at KRas G12D, 7 nM; at KRas G12R it was 3 nM; at KRas G12V it was 5 nM. Besides, the inhibition at 0.1 µM with ASPC1 cells was -4%; with H727 cells it was 3%; in the experiment on A549 cells it was 21%; in the experiment on H460 cells, 15%; in the experiment with HCT116 cells, -7%; in the experiment on H358 cells, 2%.

`CCc1c(F)ccc2cc(O)cc(N3CCc4c(nc(OC[C@@]56CCCN5C[C@H](F)C6)nc4N4CCCCC(COC(C)C(=O)N(C)C)C4)C3)c12` (stereo partly drawn) [Example 252, 2-((1-(7-(8-ethyl-7-fluoro-3-hydroxynaphthalen-1-yl)-2-(((2R,7aS)-2-fluorohexahydro-1H-pyrrolizin-7a-yl)methoxy)-5,6,7,8-tetrahydropyrido[3,4-d]pyrimidin-4-yl)azepan-3-yl)methoxy)-N,N-dimethylpropanamide]: the IC50 in the experiment with ASPC1 cells stood at 1950 nM; in the experiment on H727 cells, 1740 nM; on KRas G12D it was 23 nM; on KRas G12R it was 7 nM; on KRas G12V, 11 nM. For the same compound, the inhibition at 0.1 µM was -5% in the experiment with ASPC1 cells; 0% in the experiment on H727 cells; 16% in the experiment on A549 cells; 3% with H460 cells; 14% with HCT116 cells; -7% in the experiment on H358 cells.

As for `CCc1c(F)ccc2cc(O)cc(N3CCc4c(nc(OC[C@@]56CCCN5C[C@H](F)C6)nc4N4CCCCC(C(=O)N(C)C)C4)C3)c12` (stereo partly drawn) [Example 313, 1-(7-(8-ethyl-7-fluoro-3-hydroxynaphthalen-1-yl)-2-(((2R,7aS)-2-fluorohexahydro-1H-pyrrolizin-7a-yl)methoxy)-5,6,7,8-tetrahydropyrido[3,4-d]pyrimidin-4-yl)-N,N-dimethylazepane-3-carboxamide], the IC50 with ASPC1 cells was 2400 nM; in the experiment with H727 cells it was 747 nM; on KRas G12D, 38 nM; on KRas G12R it was 25 nM; on KRas G12V, 7 nM. Besides, the inhibition at 0.1 µM in the experiment on A549 cells came to 7%; in the experiment with H460 cells, 31%; in the experiment with HCT116 cells, 2%; in the experiment with H358 cells it was 8%.

On to `CCc1c(F)ccc2cc(O)cc(N3CCc4c(nc(OC[C@@]56CCCN5C[C@H](F)C6)nc4N4CCCCC(C(=O)NC)C4)C3)c12` (stereo partly drawn) [Example 314, 1-(7-(8-ethyl-7-fluoro-3-hydroxynaphthalen-1-yl)-2-(((2R,7aS)-2-fluorohexahydro-1H-pyrrolizin-7a-yl)methoxy)-5,6,7,8-tetrahydropyrido[3,4-d]pyrimidin-4-yl)-N-methylazepane-3-carboxamide], for which the IC50 in the experiment on ASPC1 cells is 803 nM; with H727 cells it was 406 nM; at KRas G12D, 10 nM; at KRas G12R it was 7 nM; at KRas G12V, 3 nM. Moreover, the inhibition at 0.1 µM in the experiment with A549 cells worked out at 3%; with H460 cells it was 13%; in the experiment on HCT116 cells, 4%; in the experiment with H358 cells, 0%.

For `CCc1c(F)ccc2cc(O)cc(N3CCc4c(nc(OC[C@@]56CCCN5C[C@H](F)C6)nc4N4CCCCC(C(N)=O)C4)C3)c12` (stereo partly drawn) [Example 315, 1-(7-(8-ethyl-7-fluoro-3-hydroxynaphthalen-1-yl)-2-(((2R,7aS)-2-fluorohexahydro-1H-pyrrolizin-7a-yl)methoxy)-5,6,7,8-tetrahydropyrido[3,4-d]pyrimidin-4-yl)azepane-3-carboxamide], the IC50 amounted to 1300 nM in the experiment with ASPC1 cells; 681 nM in the experiment with H727 cells; 9 nM on KRas G12D; 5 nM on KRas G12R; 3 nM at KRas G12V. Also, the inhibition at 0.1 µM was -26% with A549 cells, 4% in the experiment with H460 cells, 2% in the experiment with HCT116 cells and 11% in the experiment with H358 cells.

The term IC50 denotes the point on the concentration scale where inhibition reaches its midpoint. A higher IC50 goes with a need for much substance. By inhibition is commonly meant the change of the read-out against control, counted positive when it falls.

(Values after US20250368649A1, “TETRAHYDROPYRIDOPYRIMIDINE PAN-KRAS INHIBITORS” (Mirati Therapeutics, Inc., priority 2022, published 2025).)
